This note sets out measurements from PubChem BioAssay (NCI).

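How tested: cells in 96-well plates exposed to compound for 48 hours at five concentrations. GI50 marks 50% less growth. TGI is the concentration that stops growth completely.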

Some test systems named below: NCI-H522 lung; IGROV1 ovarian; UACC-257 melanoma; RXF 393 renal; NCI-H23 lung; LOX IMVI melanoma; KM12 colon; UO-31 renal; SN12C renal; HT29 colon.
What all share (assay): NCI anticancer screen, dose series, 48 h

Consider `CCN1C(=O)N(c2ccccc2)C2NC(=S)N(/N=C/C=C/c3ccccc3)C21` (stereo not drawn), for which the GI50 was 0.133 µM in the experiment on NCI-H522 lung; 0.599 µM with IGROV1 ovarian; 25 µM in the experiment with UACC-257 melanoma; 0.345 µM in the experiment with RXF 393 renal; 569 nM in the experiment with NCI-H23 lung; 647 nM with LOX IMVI melanoma. Besides, the GI50 with KM12 colon is 0.358 µM; in the experiment on UO-31 renal, 499 nM; in the experiment with SN12C renal, 742 nM; in the experiment with HT29 colon it was 295 nM. The TGI was 6.6 µM in the experiment on NCI-H522 lung; > 58.2 µM in the experiment with IGROV1 ovarian; > 100 µM in the experiment on UACC-257 melanoma; > 100 µM with RXF 393 renal; > 100 µM in the experiment on NCI-H23 lung; > 100 µM in the experiment with LOX IMVI melanoma. Also, the TGI in the experiment with KM12 colon, in the experiment with UO-31 renal, in the experiment with SN12C renal and in the experiment on HT29 colon was > 100 µM throughout.

With `CCN1Cc2c(ccc(F)c2C#N)O[C@@H](C)CNC(=O)c2c(N)nn3ccc1nc23`, the GI50 in the experiment with NCI-H522 lung is 5.04 µM; with IGROV1 ovarian it was 0.682 µM; with UACC-257 melanoma, 2.63 µM; with RXF 393 renal, 0.46 µM; in the experiment on NCI-H23 lung, 2300 nM; in the experiment with LOX IMVI melanoma it was 1130 nM. Also, the GI50 was 1140 nM with UO-31 renal, 1350 nM with SN12C renal and 980 nM in the experiment with HT29 colon. The TGI with NCI-H522 lung was determined as 41.3 µM; in the experiment on IGROV1 ovarian, 13 µM; with UACC-257 melanoma, 16.7 µM; with RXF 393 renal it was 3.67 µM; with NCI-H23 lung, 29.4 µM; in the experiment with LOX IMVI melanoma, 6.9 µM. The TGI in the experiment on KM12 colon was 69.7 µM; with UO-31 renal it was 6.53 µM; in the experiment with SN12C renal it was 18.5 µM; with HT29 colon, 46.7 µM.

Turning to `O=C1C=CC[C@H](/C=C/c2ccccc2)O1`, the GI50 in the experiment with NCI-H522 lung was 2.72 µM; in the experiment on IGROV1 ovarian, 5.44 µM; in the experiment on UACC-257 melanoma it was 9.81 µM; with RXF 393 renal it was 5.23 µM; in the experiment on NCI-H23 lung it was 2140 nM; in the experiment with LOX IMVI melanoma, 1700 nM. Besides, the GI50 with KM12 colon is 4.06 µM; in the experiment on UO-31 renal, 3890 nM; in the experiment with SN12C renal it was 3550 nM; with HT29 colon, 1880 nM. For the same molecule, the TGI in the experiment on NCI-H522 lung was > 25.4 µM; in the experiment on IGROV1 ovarian, 26.5 µM; with UACC-257 melanoma, 26.9 µM; in the experiment with RXF 393 renal it was > 100 µM; in the experiment with NCI-H23 lung, 10.7 µM; with LOX IMVI melanoma it was 7.93 µM. The TGI in the experiment with KM12 colon was found to be 17.8 µM; in the experiment on UO-31 renal, 8.99 µM; in the experiment on SN12C renal, 17.9 µM; in the experiment on HT29 colon it was 23.9 µM.

For `O=Cc1ccccc1B(O)O`, the TGI is 97.9 µM with NCI-H522 lung; > 100 µM in the experiment with IGROV1 ovarian; > 100 µM in the experiment with UACC-257 melanoma; > 100 µM with RXF 393 renal; > 100 µM with LOX IMVI melanoma; > 100 µM in the experiment on KM12 colon. For the same molecule, the TGI with UO-31 renal, in the experiment on SN12C renal and in the experiment on HT29 colon was > 100 µM each time.

Take `O=C(Nc1ccc2[nH]c(=S)sc2c1)Nc1ccccc1F`: the GI50 was 10.3 µM in the experiment on NCI-H522 lung; 3.58 µM in the experiment with IGROV1 ovarian; 73.5 µM with UACC-257 melanoma; 54.5 µM in the experiment with RXF 393 renal; 35800 nM with NCI-H23 lung; 16300 nM with LOX IMVI melanoma. The GI50 with KM12 colon was 24.7 µM; with UO-31 renal it was 4090 nM; with SN12C renal, 41900 nM; in the experiment with HT29 colon it was 44300 nM. Moreover, the TGI was 38.4 µM in the experiment on NCI-H522 lung; > 100 µM in the experiment on IGROV1 ovarian; > 100 µM in the experiment on UACC-257 melanoma; > 100 µM with RXF 393 renal; > 100 µM in the experiment on NCI-H23 lung; > 100 µM in the experiment on LOX IMVI melanoma. The TGI was > 100 µM with KM12 colon, 22.5 µM in the experiment with UO-31 renal, > 100 µM with SN12C renal and > 100 µM in the experiment with HT29 colon.

With `Cc1ccc([N+](=O)[O-])cc1NC(=O)c1cccc([N+](=O)[O-])c1O`, the TGI was 26.6 µM with NCI-H522 lung; 98.6 µM with IGROV1 ovarian; 39.5 µM in the experiment on UACC-257 melanoma; 27.7 µM with RXF 393 renal; 48.4 µM in the experiment on NCI-H23 lung; > 100 µM in the experiment with LOX IMVI melanoma. The TGI was 87.2 µM with KM12 colon, 36.2 µM with UO-31 renal, > 100 µM in the experiment with SN12C renal and > 100 µM with HT29 colon.

Regarding `Nc1nc(N)c2c(n1)NC(c1ccc(F)cc1)C1CCc3ccccc3C1=N2` (stereo not drawn), the GI50 is 5.66 µM in the experiment on NCI-H522 lung; 7.79 µM with IGROV1 ovarian; 5.37 µM with UACC-257 melanoma; 5.48 µM in the experiment with RXF 393 renal; 4060 nM in the experiment on NCI-H23 lung; 3980 nM in the experiment on LOX IMVI melanoma. Moreover, the GI50 in the experiment on KM12 colon was 4.93 µM; with UO-31 renal it was 3340 nM; with SN12C renal, 7800 nM; in the experiment on HT29 colon, 3840 nM. The TGI with NCI-H522 lung is 21.2 µM; in the experiment with IGROV1 ovarian, 24.1 µM; with UACC-257 melanoma, 17.8 µM; in the experiment with RXF 393 renal it was 20 µM; in the experiment with NCI-H23 lung, 16.6 µM; in the experiment on LOX IMVI melanoma, 16.1 µM. In addition, the TGI was 17 µM in the experiment with KM12 colon, 17.3 µM in the experiment on UO-31 renal, 21.6 µM in the experiment with SN12C renal and 15 µM in the experiment on HT29 colon.

As for `O=P(CCCCP(=O)(c1ccccc1)c1ccccc1)(c1ccccc1)c1ccccc1.[Cl][Sn]([Cl])([c]1ccccc1)[c]1ccccc1`, the GI50 is 0.0514 µM with NCI-H522 lung; 3.9 µM in the experiment with IGROV1 ovarian; 1.68 µM with UACC-257 melanoma; 1.38 µM in the experiment on RXF 393 renal; 1480 nM in the experiment on NCI-H23 lung; 1290 nM with LOX IMVI melanoma. For the same molecule, the GI50 with KM12 colon is 3.05 µM; in the experiment on UO-31 renal, 1680 nM; with SN12C renal it was 2100 nM; in the experiment on HT29 colon, 1890 nM. Further, the TGI came out at 0.208 µM with NCI-H522 lung; 8.39 µM in the experiment with IGROV1 ovarian; 3.31 µM with UACC-257 melanoma; 3.13 µM in the experiment on RXF 393 renal; 3.48 µM in the experiment on NCI-H23 lung; 5.45 µM in the experiment with LOX IMVI melanoma. Also, the TGI in the experiment with KM12 colon was 10.5 µM; in the experiment on UO-31 renal it was 3.19 µM; in the experiment with SN12C renal, 5.76 µM; in the experiment with HT29 colon, 4.01 µM.
